Measurements published in ChEMBL document CHEMBL6103605, “Discovery of First-in-Class BAZ2A/B and BAZ2B-Selective Degraders” (ACS Med Chem Lett, 2025).

Legend:
[1] = target: Bromodomain adjacent to zinc finger domain protein 2B (Homo sapiens, UniProt Q9UIF8)
Description: Binding affinity to BAZ2B bromodomain (unknown origin) assessed as dissociation constant by BROMOscan technology

[2] = target: Bromodomain adjacent to zinc finger domain protein 2A (Homo sapiens, UniProt Q9UIF9)
Description: Binding affinity to BAZ2A bromodomain (unknown origin) assessed as dissociation constant by BROMOscan technology

[3] = target: von Hippel-Lindau disease tumor suppressor/Bromodomain adjacent to zinc finger domain protein 2B (Homo sapiens, UniProt Q9UIF8+P40337); assay: PROTAC activity at BAZ2B/VHL in human PC-3 cells assessed as degradation after 4 hrs by Western blot analysis
[4] = target: von Hippel-Lindau disease tumor suppressor/Bromodomain adjacent to zinc finger domain protein 2A (Homo sapiens, UniProt Q9UIF9+P40337); assay: PROTAC activity at BAZ2A/VHL in human PC-3 cells assessed as degradation after 4 hrs by Western blot analysis
[5] = target: von Hippel-Lindau disease tumor suppressor/Bromodomain adjacent to zinc finger domain protein 2A (Homo sapiens, UniProt P40337+Q9UIF9); assay: PROTAC activity at BAZ2A/VHL in human PC-3 cells assessed as BAZ2A degradation after 4 hrs by Western blot analysis
[6] = Induction of BAZ2A level in human PC-3 cells measured after 4 hrs by Western blot analysis; conditions: PC-3, 4 h

| Compound | Kd [1] | Kd [2] | DC50 [3] | DC50 [4] | EC50 [5] | EC50 [6] |
| --- | --- | --- | --- | --- | --- | --- |
| Cc1ncsc1-c1ccc(CNC(=O)[C@@H]2C[C@@H](O)CN2C(=O)[C@@H](NC(=O)C2(F)CC2)C(C)(C)SC[C@H]2CC[C@H](COCc3nc(-c4cnn(C)c4)c(-c4ccc(C#N)cc4)n3CCc3cnn(C)c3)CC2)cc1 | 0.016 µM | 0.0048 µM | 0.25 µM | 0.18 µM | – | – |
| Cc1ncsc1-c1ccc(CNC(=O)[C@@H]2C[C@@H](O)CN2C(=O)[C@@H](NC(=O)C2(F)CC2)C(C)(C)C)c(OC[C@H]2CC[C@H](COCc3nc(-c4cnn(C)c4)c(-c4ccc(C#N)cc4)n3CCc3cnn(C)c3)CC2)c1 | 0.051 µM | 0.0047 µM | 0.019 µM | – | 0.035 µM | 0.035 µM |
| COCc1nc(-c2cnn(C)c2)c(-c2ccc(C#N)cc2)n1CCc1cnn(C)c1 | 0.01 µM | – | – | – | – | – |
| Cn1cc(CCn2c(CO)nc(-c3cnn(C)c3)c2-c2ccc(C#N)cc2)cn1 | 0.0092 µM | – | – | – | – | – |
